Source: PubChem BioAssay (NCI)
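Cells were grown in 96-well plates and exposed to each compound for 48 hours at five concentrations; endpoints were interpolated linearly between bracketing concentrations, or set to the highest concentration if not reached. TGI: concentration producing complete growth inhibition.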

What was measured:
Test in all cases: inhibition of tumour cell growth, NCI panel, 48 h
[1] = test system: UO-31 renal
[2] = test system: HOP-92 NSCLC
[3] = test system: SR leukemia
[4] = test system: TK-10 renal
[5] = test system: HS 578T breast
[6] = test system: SF-539 CNS
[7] = test system: CCRF-CEM leukemia
[8] = test system: SK-MEL-5 melanoma
[9] = test system: OVCAR-3 ovarian
[10] = test system: MDA-MB-435
[11] = test system: SF-268 CNS
[12] = test system: MDA-N
[13] = test system: OVCAR-5 ovarian
[14] = test system: PC-3 prostate
[15] = test system: NCI-H522 lung
[16] = test system: SNB-75 CNS
[17] = test system: SK-MEL-2 melanoma
[18] = test system: UACC-62 melanoma
[19] = test system: SW-620 colon
[20] = test system: HT29 colon
[21] = test system: HOP-62 NSCLC
[22] = test system: RXF 393 renal
[23] = test system: BT-549 breast
[24] = test system: COLO 205 colon
[25] = test system: CAKI-1 renal
[26] = test system: LOX IMVI melanoma
[27] = test system: MALME-3M melanoma
[28] = test system: UACC-257 melanoma
[29] = test system: OVCAR-4 ovarian
[30] = test system: A549 NSCLC
[31] = test system: MDA-MB-231 breast
[32] = test system: SNB-19 CNS
[33] = test system: SF-295 CNS
[34] = test system: SK-OV-3 ovarian
[35] = test system: HCC-2998 colon
[36] = test system: DU-145 prostate
[37] = test system: MOLT-4 leukemia
[38] = test system: U251 CNS
[39] = test system: EKVX NSCLC
[40] = test system: 786-0 renal
[41] = test system: NCI-H226 lung
[42] = test system: RPMI-8226 leukemia
[43] = test system: M14 melanoma
[44] = test system: K-562 leukemia
[45] = test system: KM12 colon
[46] = test system: IGROV1 ovarian
[47] = test system: HCT-15 colon
[48] = test system: OVCAR-8 ovarian
[49] = test system: NCI-H23 lung
[50] = test system: HL-60(TB) leukemia
[51] = test system: ACHN renal
[52] = test system: NCI/ADR-RES ovarian
[53] = test system: SK-MEL-28 melanoma
[54] = test system: NCI-H460 lung
[55] = test system: HCT-116 colon

Measured: TGI

CC(Cc1ccc(O)cn1)(NC(=O)c1ccccc1)C(=O)O (stereo not given)
> 100 µM: all assays above
